In the NIST ThermoML archive (doi:10.1016/j.fluid.2005.03.016):
Values joined by “and” are separate entries in the source; they are usually repeats but may differ in a detail not shown here. Equal entries are not always repeated. Numbers after ± are expanded uncertainties.

Settings: Liquid, Closed cell (Static) method

Compound | vapor or sublimation pressure (313.08 K) | vapor or sublimation pressure (313.1 K) [kPa] | vapor or sublimation pressure (313.07 K) [kPa] | also measured
CC(C)(C)O [2-methylpropan-2-ol] | 13.77 ± 0.41 kPa | – | – | –
CCO [ethanol] | – | – | 17.77 ± 0.41 | –
CO [methanol] | – | – | 35.27 ± 0.43 | –
CC(C)O [propan-2-ol] | – | – | – | vapor or sublimation pressure (313.11 K): 13.77 ± 0.41 kPa

More lines, main results first:

vapor or sublimation pressure (313.08 K) | vapor or sublimation pressure (313.1 K) [kPa] | vapor or sublimation pressure (313.07 K) [kPa] | Compound | also measured
530.05 ± 2.4 kPa and 529.95 ± 2.4 kPa | 529.95 ± 2.4 | – | CC(C)C [2-methylpropane] | vapor or sublimation pressure (313.06 K): 529.65 ± 2.3 kPa; vapor or sublimation pressure (313.12 K): 530.75 ± 2.3 kPa
– | 5.97 ± 0.4 | – | CCC(C)O (centres undefined) [butan-2-ol] | –
